Data reported in patent US4956504A, “Novel spergualin-related compounds and process for producing the same” (Zaidan Hojin Biseibutsu Kagaku Kenkyu Kai, priority 1986, dated 1990).
Where a name gives a salt, the structure may show the parent alone.

Key:
[1] = system: mice; experiment: Acute toxicity: administration amount causing acute death to mice; format: in vivo
Procedure: A compound of the present invention was dissolved in a physiological saline solution in various concentrations. Each of the resulting solutions was intraperitoneally administered to one of CDF1 -SLC female mice (one group: two to three mice) in an amount of 0.1 ml per 10 g of body weight. The highest concentration of present compound in solution was 400 mg/10 ml/kg, and starting from this solution of highest concentration, solutions of lower concentrations were prepared each time at a common ratio of 2. The administration amount of present compound with the lowest concentration solution with which at least one mouse died was taken as an administration amount of acute toxicity.
(§1) In Tables and 5, a control compound is included. This compound is such that in the general formula [I], X is [drawing 59] R is --CH2 OH and both of R1 and R2 are --H.

[2] = system: antibody formation (anti-SRBC plaque-forming cells); experiment: Inhibitory activity against antibody formation (anti-SRBC plaque-forming cells in spleen); format: in vivo, mouse (CDF1-SLC female); conditions: once a day for three consecutive days, minus shows an increase of antibody formation
Procedure: (b) Inhibitory activity against antibody formation
Test groups and a control group of CDF1 -SLC female mice (each group: five mice) were intravenously sensitized with 1×10^8 /0.2 ml of sheep red blood cells (SRBC). A compound of the present invention was dissolved in a physiological saline solution in various concentrations. Each of the resulting solutions was administered to one of the test groups once a day for three consecutive days from the next day of the sensitization, in an amount of 0.1 ml/10 g (body weight)/day. The physiological saline solution was administered to the control group.
In the fourth day from the sensitization, all the mice were killed and the number of anti-SRBC plaque-forming cells (PFC) in the spleen cells of each mouse was measured. From this number, the PFC number per 10^6 of spleen cells was calculated. The effect of the present compound was expressed as an inhibition percentage (%) of PFC number of test group as compared with control group. [formula]
as §1

[3] = system: mouse leukemia L1210; experiment: Life prolongation effect to mouse leukemia L1210; format: in vivo, mouse (CDF1-SLC female); conditions: once a day for nine consecutive days, 125 or more is effective, read-out: T/C × 100 (life prolongation percentage); for response vs control in vivo at 0.39 mg/kg: 0.39 mg/kg/day; for response vs control in vivo at 0.78 mg/kg: 0.78 mg/kg/day; for response vs control in vivo at 1.56 mg/kg: 1.56 mg/kg/day; for response vs control in vivo at 3.13 mg/kg: 3.13 mg/kg/day; for response vs control in vivo at 6.25 mg/kg: 6.25 mg/kg/day; for response vs control in vivo at 12.5 mg/kg: 12.50 mg/kg/day; for response vs control in vivo at 25 mg/kg: 25.00 mg/kg/day; for response vs control in vivo at 50 mg/kg: 50.00 mg/kg/day
Procedure: 3. Life prolongation effect of present compound to mouse leukemia cells L1210 and its toxicity
1×10^5 /0.2 ml/mouse of mouse leukemia cells L1210 were intraperitoneally transplanted to test groups and a control group of CDF1 -SLC female mice (each group: four mice). A compound of the present invention was dissolved in a physiological saline solution in various concentrations and each of the resulting solutions was administered to one of the test groups once a day for nine consecutive days from the next day of the transplantation, in an amount of 0.1 ml/10 g (body weight)/day. The physiological saline solution was administered to the control group.
All the mice of the test groups and the control group were observed from the next day of the L1210 transplantation to examine their days of survival, and the average days of survival (T) of each test group and the average days of survival (C) of the control group were calculated. The life prolongation percentage of the present compound was expressed as (T/C)×100.
It is believed that a (T/C)×100 of 125 or more is effective.
as §1

[4] = Administration amount 1.56 mg/kg
[5] = Administration amount 6.25 mg/kg
[6] = intraperitoneal, single, lowest amount with which at least one mouse died

Row | SMILES | Administration amount causing acute death to mice ([1]; mouse, in vivo, ip) [mg/kg] | Inhibitory percentage (antibody formation, PFC number vs control group) [2, 4] [%] | Inhibitory percentage (antibody formation, PFC number vs control group) [2, 5] [%] | response vs control in vivo at 0.39 mg/kg [3] [%] | response vs control in vivo at 0.78 mg/kg [3] [%] | response vs control in vivo at 1.56 mg/kg [3] [%] | response vs control in vivo at 3.13 mg/kg [3] [%] | response vs control in vivo at 6.25 mg/kg [3] [%] | response vs control in vivo at 12.5 mg/kg [3] [%] | response vs control in vivo at 25 mg/kg [3] [%] | response vs control in vivo at 50 mg/kg [3] [%] | Administration amount causing acute death to mice [1, 6] [mg/kg] | response vs control in vivo at 0.2 mg/kg ([3]; 0.20 mg/kg/day) [%] | response vs control in vivo at 100 mg/kg ([3]; 100.00 mg/kg/day) [%]
1 | N=C(N)Nc1ccc(CCCC(=O)N[C@@H](CO)C(=O)NCCCCNCCCNC(=O)[C@@H](N)c2ccccc2)cc1 [Compound No. 1, 10-{N-[4-(4-GP)butanoyl]-L-Ser}-1-L-PhG-1,5,10-TAD trihydrochloride] | 100 | 87 | 97 | 146 | 195 | 296 | 269 | 315 | 278 | 294 | 327 | – | – | –
2 | CC(C)C[C@H](N)C(=O)NCCCNCCCCNC(=O)[C@H](CO)NC(=O)CCCc1ccc(NC(=N)N)cc1 [Compound No. 2, 10-{N-[4-(4-GP)butanoyl)-L-Ser}-1-L-] | – | 60 | 92 | 136 | 152 | 244 | 331 | 300 | 272 | 281 | 53 | – | – | –
3 | CC(C)C[C@@H](N)C(=O)NCCCNCCCCNC(=O)[C@H](CO)NC(=O)CCCc1ccc(NC(=N)N)cc1 [Compound No. 3, 10-{N-[4-(4-GP)butanoyl]-L-Ser}-1-D-Leu-1,5,10-TAD trihydrochloride] | – | – | – | – | – | – | – | – | – | – | – | 100 | – | –
4 | N=C(N)Nc1ccc(CCCC(=O)N[C@@H](CO)C(=O)NCCCCNCCCNC(=O)[C@H](N)c2ccccc2)cc1 [Compound No. 4, trihydrochloride] | 100 | 68 | 95 | 125 | 149 | 195 | 228 | 237 | 243 | 247 | 197 | – | – | –
5 | N=C(N)Nc1ccc(CCCC(=O)N[C@@H](CO)C(=O)NCCCCNCCCNC(=O)[C@@H](N)Cc2ccccc2)cc1 [Compound No. 5, 10-{N-[4-(4-GP)butanoyl]-L-Ser}-1-L-Phe-1,5,10-TAD trihydrochloride] | 100 | – | – | 123 | 133 | 146 | 265 | 290 | 290 | 284 | 253 | – | – | –
6 | N=C(N)Nc1ccc(CCCC(=O)N[C@@H](CO)C(=O)NCCCCNCCCNC(=O)[C@@H](N)Cc2ccc(O)cc2)cc1 [Compound No. 6, 10-{N-[4-(4-GP)butanoyl]-L-Ser}-1-L-Tyr-1,5,10-TAD trihydrochloride] | 100 | – | – | 125 | 158 | 201 | 267 | 250 | 250 | 270 | 162 | – | – | –
7 | N=C(N)Nc1ccc(CCCC(=O)N[C@@H](CO)C(=O)NCCCCNCCCNC(=O)[C@@H](N)CC(=O)O)cc1 [Compound No. 7, 10-{N-[4-(4-GP)butanoyl]-L-Ser}-1-L-Asp-1,5,10-TAD trihydrochloride] | 100 | – | – | 96 | 86 | 99 | 152 | 216 | 265 | 284 | 284 | – | – | –
8 | C[C@H](N)C(=O)NCCCNCCCCNC(=O)[C@H](CO)NC(=O)CCCc1ccc(NC(=N)N)cc1 [Compound No. 8, 10-{N-[4-(4-GP)butanoyl]-L-Ser}-1-L-Ala-1,5,10-TAD trihydrochloride] | – | – | – | 102 | 130 | 164 | 312 | 272 | 290 | 362 | – | – | 109 | –
9 | N=C(N)Nc1ccc(CCCC(=O)N[C@@H](CO)C(=O)NCCCCNCCCNC(=O)[C@@H](N)CO)cc1 [Compound No. 9, 10-{N-[4-(4-GP)butanoyl]-L-Ser}-1-L-Ser-1,5,10-TAD trihydrochloride] | > 100 | – | – | – | 118 | 125 | 155 | 191 | 276 | 241 | 250 | – | – | 103
10 | N=C(N)Nc1ccc(CCCC(=O)N[C@@H](CO)C(=O)NCCCCNCCCNC(=O)[C@@H]2CCCN2)cc1 [Compound No. 10, 10-{N-[4-(4-GP)butanoyl-L-Ser}-1-L-Pro-1,5,10-TAD trihydrochloride] | – | – | – | – | – | – | – | – | – | – | – | 100 | – | –
11 | N=C(N)Nc1ccc(CCCC(=O)N[C@@H](CO)C(=O)NCCCCNCCCNC(=O)[C@@H](O)[C@H](N)Cc2ccccc2)cc1 [Compound No. 12, 10-{N-[4-(4-GP)butanoyl]-L-Ser}-1-[(2S, 3R)-AHPA]-1,5,10-TAD trihydrochloride] | – | – | – | – | – | – | – | – | – | – | – | 100 | – | –
12 | CC(C)C[C@H](NC(=O)[C@@H](N)CC(C)C)C(=O)NCCCNCCCCNC(=O)[C@H](CO)NC(=O)CCCc1ccc(NC(=N)N)cc1 [Compound No. 13, 10-{N-[4-(4-GP)butanoyl]-L-Ser}-1-L-Leu-L-Leu-1,5,10-TAD trihydrochloride] | 100 | 53 | 88 | 132 | 149 | 201 | 283 | 247 | 257 | 274 | 303 | – | – | –
13 | N=C(N)Nc1ccc(CCCC(=O)N[C@@H](CO)C(=O)NCCCCN(CCCNC(=O)[C@@H](N)c2ccccc2)C(=O)[C@@H](N)c2ccccc2)cc1 [Compound No. 14, 10-{N-[4-(4-GP)butanoyl]-L-Ser}-1,5-di-L-PhG-1,5,10-TAD trihydrochloride] | 200 | -50 | -75 | – | – | – | – | – | – | – | – | – | – | –
